Measured values taken from patent publication US9290473B2, “Inhibitors of phosphatidylinositol-3-kinase (PI3) and inducers of nitric oxide (NO)” (COUCIL OF SCIENTIFIC & INDUSTRIAL RESEARCH, priority 2009, dated 2016).

Assays:
[1] = Sensitivity to spontaneous autooxidation (H2O2 level, TMB reagent); format: physicochemical; details: 30 µM, 30 min and 2 hr in medium alone, with and without Catalase; H2O2 in supernatant
Procedure: Spontaneous autooxidation of compounds having phenolic groups produce reactive oxygen species like H2O2. The enzyme Catalase breaks down H2O2 to water, We therefore incubated Compound 1 and 7 (30 µM each) for 30 min and 2 hr in medium alone in the presence and absence of Catalase. Level of H2O2 in the supernatant was then measured as reported using 3,5,3′,5′-tetramethylbenzidine (TMB) reagent (Plant Physiology, 2004, 136, 3114-3123). FIG. 1 represents the data of sensitivity of spontaneous autooxidation of Compound 1 and Compound 7.

[2] = system: Ehrlich ascites carcinoma (EAC); test: Ehrlich ascites carcinoma (EAC) model in vivo; details: 30 mg/kg body weight intraperitoneally thrice a week for three weeks, Swiss albino mice
Excerpt: The in vitro studies indicate that hydroxychavicol and other compounds of the present invention induce killing of a variety of cancer cell lines including breast cancer cell line MCF-7 (Table 5). The MCF-7 cell line is of epithelial origin. Studies were extended in vivo in mouse model for a tumor of epithelial origin. Ehrlich ascites carcinoma is a tumor of epithelial origin (Cancer Research, 1958, 18, 1167-1185). EAC was established in Swiss albino mice as described (Biochemical and Biophysical Research Communications, 2001, 288, 658-665). Swiss albino mice were injected with EAC (2×10^6 cells/mouse) intraperitoneally. 2 days post-injection of tumor cells, these mice (5 per group) were injected intraperitoneally with Compound No. 1 (hydroxychavicol) (30 mg/kg body weight) or Compound No. 7 (30 mg/kg body weight) thrice a week for three weeks. One week after the last injection, mice were sacrificed, and viable cells from peritoneal cavity were counted microscopically. Vehicle (dimethyl sulphoxide [DMSO], 0.1%) was used as control.

Structure (SMILES): C=CCc1ccc(O)c(O)c1 [Compound 1, 4-allyl-benzene-1,2-diol]
- Sensitivity to spontaneous autooxidation [1]: undergoes spontaneous autooxidation
- In vivo efficacy against EAC tumor (viable cells from peritoneal cavity) [2]: effective in vivo in destroying EAC tumor
